# Source: US9446092B2, “Use of a neurofilament peptide for the treatment of glioma” (UNIVERSITE D'ANGERS, priority 2009, dated 2016)
# Ends that are not written are not given here.
# Key:
# [1] = system: primary human glioblastoma cells; assay: MTS assay on primary glioblastoma cells isolated after surgery; type: cell-based; conditions: 40 nM, 72 h
# Protocol: Primary human glioblastoma cells obtained from tissue samples extracted in human brains during surgery are put in culture in a DMEM medium containing glucose, L-glutamine, 10% fetal calf serum, […] (Sigma). Cells were plated (20 000 cells per cm^2) in MW96 and let grow at 37° C. in a humidified incubator gassed with 5% CO2. The peptides and/or drugs are added 48 hours after their plating.
# (§1) The effects of peptides on the proliferation of glioma cells or astrocytes were evaluated by the MTS cytotoxicity assay and by counting directly the number of cells. For the MTS assay (Promega), 500 cells were seeded in 96-well plates, incubated at 37° C. for 24 hours, and treated by the peptide at the indicated concentrations for 24, 48 and 72 hours, or with vehicle (PBS or water). Media and peptides were replaced daily. Peptides were prepared in DMEM, and paclitaxel was dissolved in DMSO at a concentration of 2 mM and further diluted into DMEM. Viability was also determined by trypan blue staining. For manual counts, cells were treated with 0.25% trypsin/0.53 mM EDTA, centrifuged, and counted with a hemacytometer following addition of trypan blue dye. At each time, 3 to 6 wells per treatment were counted.
# primary astrocytes = assay: Cell death analysis by flow cytometry (Annexin V / PI); type: cell-based, rat; conditions: 100 μM, 72 hours, Annexin V/PI FACS
# Protocol: (§2) To detect possible apoptotic processes, cells were seeded in 35 mm dishes and cultured in media containing biotinylated peptides (100 μM) or PBS alone for 72 hours. Paclitaxel (40 nM) was used as a positive control to induce apoptosis (Terzis et al., 1997). Cells were then trypsinized, washed in cold PBS, and stained with Annexin V-FITC (BD Pharmingen) in Annexin buffer for 15 min at room temperature. Finally, they were counterstained with 50 μg/mL propidium iodide (Sigma) and analyzed with a FACSCalibur flow cytometer. Experiment on each cell type was repeated three times. 20,000 events per sample were analyzed in each experiment.
# 9L cells [2] = assay: as above; type: cell-based, rat; conditions: 100 μM, 72 hours, Annexin V/PI FACS
# Protocol: as §2
# F98 cells [3] = assay: as above; type: cell-based, rat; conditions: 100 μM, 72 hours, Annexin V/PI FACS
# Protocol: as §2
# glioma cells = assay: Peptide uptake by glioma cells: temperature/energy dependence and sequence specificity; type: cell-based
# Protocol: To evaluate the internalization of fluorescein-labeled NFL-TBS40-63 peptide by FACS, glioma cells or astrocytes were seeded in 35 mm dishes and cultured for 1 hour at 37° C. in media containing fluorescein-labeled NFL-TBS40-63 peptide at increasing concentrations or with vehicle (PBS). Cells were trypsinized, washed twice in cold PBS before incubation with trypsin (1 mg/mL) during 15 min at 37° C. To investigate a possible energy-dependant mechanism for the uptake of the peptide, cells were incubated at 4° C. with 20 μM fluorescein-labeled NFL-TBS2 peptide (after 15 min of 4° C. preincubation), or with 10 mM sodium azide in the presence of 6 mM 2-deoxy-D-glucose for 1 hour to deplete cellular ATP before addition of 20 μM fluorescence-labeled NFL-TBS2 peptide. Cells were then washed once, resuspended in 500 μl containing 50 μg/mL propidium iodide (Sigma, Saint-Quentin Fallavier, France), and analyzed with FACScalibur flow cytometer. Experiment on each cell type was repeated three times. 20,000 events per sample were analyzed in each experiment.
# rat neurons = assay: Immunocytochemistry: peptide penetration and microtubule network; type: cell-based; conditions: 10 μM, 6 h
# Protocol: Hippocampal neuronal cultures were prepared from newborn rat brains according to Ray et al. 1993 and Kaech and Banker 2006. Briefly, the hippocampi of animals younger than 2 days were recovered, minced and digested in 0.01% trypsin for one hour at 37° C. Dissociated cells were plated on coverslips precoated with 5 μg/ml poly-1-lysine and 7 μg/ml collagen at densities of 2×10^5/ml and incubated at 37° C. with a 5% CO2 atmosphere. Twenty-four hours later, the plating solution was replaced by B-27 neurobasal medium, and the second day cytosine arabinoside (20 μM) was added to eliminate non-neural cells. Experiments were performed 7 days after plating.
# (§3) Cells were plated on coverslips and cultured in media containing biotinylated peptides (10 μM) for 6 hours. Following PBS washing, the cells were fixed for 10 min in 4% paraformaldehyde, and washed 3 times in PBS. […]
# (§4) Observations were carried out with an Olympus confocal microscope (BX50) using Fluoview.3.1. […] Images were acquired with a CoolSNAP-HQ2 camera and analyzed with Metamorph 7.1.7.0. software. Cells that are positive for peptide staining and cells with destroyed microtubule network were counted. Experiments on each cell type were repeated at least three times, and minimums of 200 cells were analyzed for each experiment.
# 9L glioma cells [4] = assay: as above; type: cell-based, rat; conditions: 10 μM, 6 h
# Protocol: (§5) Cells were plated on coverslips and cultured in media containing biotinylated peptides (10 μM) for 6 hours. Following PBS washing, the cells were fixed for 10 min in 4% paraformaldehyde, and washed 3 times in PBS. They were then incubated for 10 min in a 0.5% triton X-100 permeabilization solution, washed 3 times in PBS before incubation in a blocking solution (5% BSA) for 15 min. Glioma cells and astrocytes were incubated overnight at 4° C. with mouse anti-B-tubulin antibody (Sigma) 1/200, and neurons with mouse anti-Bill-tubulin antibody 1/200. Tubulin and biotinylated peptides were localized using respectively Alexa 568 nm anti-mouse antibody and streptavidin Alexa 488 nm (Molecular Probes) 1/200 for 1 hour, followed by washing in PBS. The preparations were counterstained with 3 μM 4′6-diaminido-2-phenylindole (DAPI; Sigma) for 5 min, and washed twice with PBS. Coverslips were mounted with an antifading solution.
# (§6) Observations were carried out with an Olympus confocal microscope (BX50) using Fluoview.3.1. Software or a Leica DMI6000 inverted microscope. Images were acquired with a CoolSNAP-HQ2 camera and analyzed with Metamorph 7.1.7.0. software. Cells that are positive for peptide staining and cells with destroyed microtubule network were counted. Experiments on each cell type were repeated at least three times, and minimums of 200 cells were analyzed for each experiment.
# F98 glioma cells [5] = assay: as above; type: cell-based, rat; conditions: 10 μM, 6 h
# Protocol: as §5, §6
# rat astrocytes = assay: BrdU incorporation (cell proliferation); type: cell-based; conditions: 100 μM, 72 hours
# Protocol: (§7) To assess cell proliferation, 5-bromodeoxyuridine (BrdU) immunohistochemistry was used. Cells were platted on coverslips and cultured in media containing biotinylated peptides (100 μM) for 72 hours, and incubated during 4 hours in the presence of 1 mg/mL BrdU (Sigma). Cells were then washed in PBS, fixed in 3% paraformaldehyde for 10 min and permeabilized with 1% Triton X-100 in PBS for 10 min. Cells were acidified to denature the DNA (2 N HCl, 10 min), neutralized (0.1 M sodium borate, 10 min) and then rinsed extensively in PBS. After blocking with 10% NGS (10 min) the cells were labeled with monoclonal anti-BrdU antibody (1/400) followed by Alexa 568 nm anti-mouse antibody (1/200). Nuclei were stained with 4′6-diaminido-2-phenylindole (DAPI; Sigma). […] Images were acquired with a CoolSNAP HQ2 camera and analyzed with Metamorph 7.1.7.0. software. Minimums of 200 cells were scored for BrdU incorporation, and experiments were repeated at least three times.
# rat primary astrocytes = assay: Immunocytochemistry: peptide penetration and microtubule network; type: cell-based; conditions: 10 μM, 6 h
# Protocol: Rat primary astrocytes were obtained from cultures of cerebral cortex as originally described (McCarthy and de Vellis, 1980). Briefly, the cerebral cortex was dissected from newborn rats and cells were recovered after tissue homogenization, trypsination, and centrifugation. They were grown during 3 weeks in DMEM media with glucose and L-glutamine (Lonza France), containing 10% fetal calf serum (Lonza France), 1% penicillin/streptomycin (Sigma) in humidified incubator gassed with 5% CO2 (37° C.).
# as §3, with “PBS. They were then incubated for 10 min in a 0.5% triton X-100 permeabilization solution, washed 3 times in PBS before incubation in a blocking solution (5% BSA) for 15 min.” for “PBS.”
# as §4
# 9L cells [6] = assay: BrdU incorporation (cell proliferation); type: cell-based, rat; conditions: 100 μM, 72 hours
# Protocol: as §7
# F98 cells [7] = assay: BrdU incorporation (cell proliferation); type: cell-based, rat; conditions: 100 μM, 72 hours
# Protocol: as §7
# [8] = Non tumor-bearing (control) rats, intracerebral peptide injection; type: in vivo, rat
# 9L glioma cells [9] = assay: MTS cytotoxicity assay; type: cell-based, rat; conditions: 100 μM, 72 hours
# Protocol: as §1
# F98 glioma cells [10] = assay: MTS cytotoxicity assay; type: cell-based, rat; conditions: 100 μM, 72 hours
# Protocol: as §1
molecule,measurement,setting,value
"CC(=O)O[C@H]1C(=O)[C@@]2(C)[C@H]([C@H](OC(=O)c3ccccc3)[C@]3(O)C[C@H](OC(=O)[C@H](O)[C@@H](NC(=O)c4ccccc4)c4ccccc4)C(C)=C1C3(C)C)[C@]1(OC(C)=O)CO[C@@H]1C[C@@H]2O [taxol, paclitaxel]",cell survival compared with NFL-TBS40-63 peptide (MTS),[1],at the same level
"NFL-SCR: similarly labeled scrambled peptide, control scrambled sequence of NFL-TBS40-63 (SLGSPSSSVRASYSSSRSYVYSSS; also: N-terminal label (biotin or carboxyfluorescein), not given here for this peptide)",apoptotic response,primary astrocytes,has no effect
same,apoptotic response,9L cells [2],has no effect
same,apoptotic response,F98 cells [3],has no effect
same,internalization into glioma cells,glioma cells,absence of internalization
same,cells with altered microtubule network,rat neurons,didn't alter the microtubule network
same,"total cells with altered microtubule network (spherical shape, aggregated tubulin)",9L glioma cells [4],didn't alter the microtubule network
same,"total cells with altered microtubule network (spherical shape, aggregated tubulin)",F98 glioma cells [5],didn't alter the microtubule network
same,effect on proliferation (BrdU incorporation),rat astrocytes,has no effect
same,cells with altered microtubule network,rat primary astrocytes,didn't alter the microtubule network
same,inhibition of BrdU incorporation,9L cells [6],has no effect
same,inhibition of BrdU incorporation,F98 cells [7],has no effect
YSSYSAPVSSSLSVRRSYSSSSGS [NFL-TBS40-63],cellular defects in normal brain,[8]; injected in normal brain,no major cellular defects
same,"clinical signs of distress (weight loss, hunched posture)",[8]; non tumor-bearing rats treated with the peptide,no clinical signs of distress
same,elimination of the peptide from normal brain,"[8]; same procedure, days 16, 24 or 30",rapidly eliminated and was not detectable at these time points
same,reduction of cell viability (MTS),9L glioma cells [9],30.0%±4.4
same,reduction of cell viability (MTS),F98 glioma cells [10],60.8%±2.8
